{
  "source": "ChEMBL document CHEMBL5032540",
  "about": "“Design, Synthesis, and Biological Evaluation of Novel EGFR PROTACs Targeting Del19/T790M/C797S Mutation” (ACS Med Chem Lett, 2022)",
  "key": {"BaF3 [1]": {"system": "BaF3", "assay": "Antiproliferative activity against mouse BaF3 cells expressing EGFR del19/T790M/C797S triple mutant assessed as cell growth inhibition measured after 72 hrs by CCK8 assay", "format": "functional, cell-based", "conditions": "BaF3, 72 h"}, "BaF3 [2]": {"system": "BaF3", "assay": "Induction of EGFR del19/T790M/C797S triple mutant degradation in mouse BaF3 cells at 0.1 uM measured after 3 hrs by Western blot analysis relative to control", "format": "cell-based"}, "BaF3 [3]": {"system": "BaF3", "assay": "Induction of EGFR del19/T790M/C797S triple mutant degradation in mouse BaF3 cells at 0.01 uM measured after 3 hrs by Western blot analysis relative to control", "format": "cell-based"}, "BaF3 [4]": {"system": "BaF3", "assay": "Induction of EGFR del19/T790M/C797S triple mutant degradation in mouse BaF3 cells at 0.01 to 0.1 uM measured after 3 hrs by Western blot analysis", "format": "cell-based", "conditions": "dose 0.01-0.1 µM"}, "BaF3 [5]": {"system": "BaF3", "assay": "Induction of EGFR del19/T790M/C797S triple mutant degradation in mouse BaF3 cells at 0.1 uM preincubated with compound for 3 hrs followed by compound washout and measured after 24 hrs by Western blot analysis", "format": "cell-based"}, "[6]": {"molecular_target": "RAC-alpha serine/threonine-protein kinase (Mus musculus) (UniProt P31750)", "sequence (P31750 whole entry)": "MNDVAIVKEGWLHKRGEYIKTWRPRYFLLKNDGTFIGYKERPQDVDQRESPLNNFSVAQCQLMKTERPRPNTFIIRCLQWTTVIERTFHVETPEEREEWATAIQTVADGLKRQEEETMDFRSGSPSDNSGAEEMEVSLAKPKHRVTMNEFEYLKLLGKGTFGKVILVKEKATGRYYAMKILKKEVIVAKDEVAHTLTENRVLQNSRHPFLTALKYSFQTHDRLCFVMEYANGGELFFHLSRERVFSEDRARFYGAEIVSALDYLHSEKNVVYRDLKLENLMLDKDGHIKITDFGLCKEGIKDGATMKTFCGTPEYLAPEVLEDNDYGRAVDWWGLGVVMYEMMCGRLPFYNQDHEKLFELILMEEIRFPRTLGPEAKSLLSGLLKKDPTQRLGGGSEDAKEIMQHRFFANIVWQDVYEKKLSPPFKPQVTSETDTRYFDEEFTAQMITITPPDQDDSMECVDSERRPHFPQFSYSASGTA", "assay": "Inhibition of Akt phosphorylation in mouse BaF3 cells expressing EGFR del19/T790M/C797S triple mutant after 3 hrs by Western blot analysis", "format": "cell-based", "conditions": "dose 0.001-10 µM"}, "BaF3 [7]": {"system": "BaF3", "assay": "Inhibition of ERK phosphorylation in mouse BaF3 cells expressing EGFR del19/T790M/C797S triple mutant after 3 hrs by Western blot analysis", "format": "cell-based", "conditions": "dose 0.001-10 µM"}, "BaF3 [8]": {"system": "BaF3", "assay": "Induction of EGFR del19/T790M/C797S triple mutant degradation in mouse BaF3 cells at 1 uM after 3 hrs by immunoblotting analysis relative to control", "format": "cell-based"}, "BaF3 [9]": {"system": "BaF3", "assay": "Induction of EGFR del19/T790M/C797S triple mutant degradation in mouse BaF3 cells after 3 hrs by immunoblotting analysis", "format": "cell-based", "conditions": "dose 0.001-10 µM"}, "BaF3 [10]": {"system": "BaF3", "assay": "Induction of EGFR del19/T790M/C797S triple mutant degradation in mouse BaF3 cells at 0.1 uM preincubated for 3 hrs with EGFR inhibitor 3 followed by compound addition and measured after 3 hrs by Western blot analysis", "format": "cell-based"}, "BaF3 [11]": {"system": "BaF3", "assay": "Induction of EGFR del19/T790M/C797S triple mutant degradation in mouse BaF3 cells at 0.1 uM measured after 3 to 24 hrs by Western blot analysis", "format": "cell-based", "conditions": "time 3-24 hrs"}, "[12]": {"system": "Epidermal growth factor receptor (Homo sapiens), P00533 [UNDEFINED MUTATION]", "assay": "Induction of EGFR del19 mutant degradation in human HCC827 cells assessed as decrease in EGFR protein level at 0.005 to 0.5 uM measured after 3 hrs by Western blot assay", "format": "cell-based", "conditions": "dose 0.005-0.5 µM"}, "[13]": {"molecular_target": "Epidermal growth factor receptor (Homo sapiens) (UniProt P00533)", "assay": "Induction of EGFR degradation in human A-431 cells assessed as decrease in EGFR protein level at 0.005 to 0.5 uM measured after 3 hrs by Western blot assay", "format": "cell-based", "conditions": "dose 0.005-0.5 µM"}, "[14]": {"system": "Epidermal growth factor receptor (Homo sapiens), P00533 [L858R]", "assay": "Induction of EGFR L858R mutant degradation in human […] cells assessed as decrease in EGFR protein level at 0.005 to 0.5 uM measured after 3 hrs by Western blot assay", "format": "cell-based", "conditions": "NCI-H3255, dose 0.005-0.5 µM"}, "[15]": {"system": "Epidermal growth factor receptor (Homo sapiens), P00533 [L858R,T790M]", "assay": "Induction of EGFR L858R/T790M mutant degradation in human NCI-H1975 cells assessed as decrease in EGFR protein level at 0.005 to 0.5 uM measured after 3 hrs by Western blot assay", "format": "cell-based", "conditions": "dose 0.005-0.5 µM"}, "NCI-H1975": {"system": "NCI-H1975", "assay": "Antiproliferative activity against human NCI-H1975 cells expressing EGFR L858R/T790M double mutant assessed as cell growth inhibition after 72 hrs by CCK-8 assay", "format": "functional, cell-based", "conditions": "NCI-H1975, 72 h"}, "NCI-H3255": {"system": "NCI-H3255", "assay": "Antiproliferative activity against human NCI-H3255 cells expressing L858R mutant assessed as cell growth inhibition after 72 hrs by CCK-8 assay", "format": "functional, cell-based", "conditions": "NCI-H3255, 72 h"}, "HCC827": {"system": "HCC827", "assay": "Antiproliferative activity against human HCC827 cells expressing EGFR del19 mutant assessed as cell growth inhibition after 72 hrs by CCK-8 assay", "format": "functional, cell-based", "conditions": "HCC827, 72 h"}, "A-431": {"system": "A-431", "assay": "Antiproliferative activity against human A-431 cells expressing wild-type EGFR assessed as cell growth inhibition after 72 hrs by CCK-8 assay", "format": "functional, cell-based", "conditions": "A-431, 72 h"}, "BaF3 [16]": {"system": "BaF3", "assay": "Induction of EGFR del19/T790M/C797S triple mutant degradation in mouse BaF3 cells at 0.1 uM preincubated for 3 hrs with VHL ligand 5 followed by compound addition and measured after 3 hrs by Western blot analysis", "format": "cell-based"}, "BaF3 [17]": {"system": "BaF3", "assay": "Induction of EGFR del19/T790M/C797S triple mutant degradation in mouse BaF3 cells at 0.1 uM preincubated for 2 hrs with proteosome inhibitor MG132 followed by compound addition and measured after 3 hrs by Western blot analysis", "format": "cell-based"}, "EML4-ALK (Homo sapiens)": {"molecular_target": "EML4-ALK (Homo sapiens) (UniProt Q9UM73+Q9HC35)", "sequence (Q9HC35 whole entry partner, the tested form may be a part)": "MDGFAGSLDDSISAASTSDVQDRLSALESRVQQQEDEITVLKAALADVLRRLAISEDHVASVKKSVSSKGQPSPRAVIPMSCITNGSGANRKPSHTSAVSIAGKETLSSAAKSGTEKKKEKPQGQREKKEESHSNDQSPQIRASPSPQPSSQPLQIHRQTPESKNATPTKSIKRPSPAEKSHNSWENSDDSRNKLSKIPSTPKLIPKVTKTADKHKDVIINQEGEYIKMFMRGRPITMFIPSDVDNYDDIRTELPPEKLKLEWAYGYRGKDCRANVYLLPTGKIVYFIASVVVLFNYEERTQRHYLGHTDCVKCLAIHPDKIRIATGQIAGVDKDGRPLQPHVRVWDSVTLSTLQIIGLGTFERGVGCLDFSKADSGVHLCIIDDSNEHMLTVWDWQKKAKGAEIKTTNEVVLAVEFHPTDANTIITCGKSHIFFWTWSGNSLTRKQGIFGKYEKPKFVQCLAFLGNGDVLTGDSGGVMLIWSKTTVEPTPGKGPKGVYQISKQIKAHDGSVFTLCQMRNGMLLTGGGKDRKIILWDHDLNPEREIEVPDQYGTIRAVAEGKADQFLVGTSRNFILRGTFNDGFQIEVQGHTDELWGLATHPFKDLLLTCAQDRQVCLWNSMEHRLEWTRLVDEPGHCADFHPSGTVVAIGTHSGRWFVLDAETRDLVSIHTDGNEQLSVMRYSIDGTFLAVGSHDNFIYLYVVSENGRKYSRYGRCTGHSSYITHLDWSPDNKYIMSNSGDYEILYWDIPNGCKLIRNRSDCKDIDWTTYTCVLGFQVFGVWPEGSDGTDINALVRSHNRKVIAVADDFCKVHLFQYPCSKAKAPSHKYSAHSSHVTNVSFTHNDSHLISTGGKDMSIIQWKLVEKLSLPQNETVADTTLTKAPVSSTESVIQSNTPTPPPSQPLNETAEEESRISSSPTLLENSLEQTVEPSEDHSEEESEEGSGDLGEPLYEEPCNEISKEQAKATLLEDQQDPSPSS", "sequence (Q9UM73 19-1620 limits assumed)": "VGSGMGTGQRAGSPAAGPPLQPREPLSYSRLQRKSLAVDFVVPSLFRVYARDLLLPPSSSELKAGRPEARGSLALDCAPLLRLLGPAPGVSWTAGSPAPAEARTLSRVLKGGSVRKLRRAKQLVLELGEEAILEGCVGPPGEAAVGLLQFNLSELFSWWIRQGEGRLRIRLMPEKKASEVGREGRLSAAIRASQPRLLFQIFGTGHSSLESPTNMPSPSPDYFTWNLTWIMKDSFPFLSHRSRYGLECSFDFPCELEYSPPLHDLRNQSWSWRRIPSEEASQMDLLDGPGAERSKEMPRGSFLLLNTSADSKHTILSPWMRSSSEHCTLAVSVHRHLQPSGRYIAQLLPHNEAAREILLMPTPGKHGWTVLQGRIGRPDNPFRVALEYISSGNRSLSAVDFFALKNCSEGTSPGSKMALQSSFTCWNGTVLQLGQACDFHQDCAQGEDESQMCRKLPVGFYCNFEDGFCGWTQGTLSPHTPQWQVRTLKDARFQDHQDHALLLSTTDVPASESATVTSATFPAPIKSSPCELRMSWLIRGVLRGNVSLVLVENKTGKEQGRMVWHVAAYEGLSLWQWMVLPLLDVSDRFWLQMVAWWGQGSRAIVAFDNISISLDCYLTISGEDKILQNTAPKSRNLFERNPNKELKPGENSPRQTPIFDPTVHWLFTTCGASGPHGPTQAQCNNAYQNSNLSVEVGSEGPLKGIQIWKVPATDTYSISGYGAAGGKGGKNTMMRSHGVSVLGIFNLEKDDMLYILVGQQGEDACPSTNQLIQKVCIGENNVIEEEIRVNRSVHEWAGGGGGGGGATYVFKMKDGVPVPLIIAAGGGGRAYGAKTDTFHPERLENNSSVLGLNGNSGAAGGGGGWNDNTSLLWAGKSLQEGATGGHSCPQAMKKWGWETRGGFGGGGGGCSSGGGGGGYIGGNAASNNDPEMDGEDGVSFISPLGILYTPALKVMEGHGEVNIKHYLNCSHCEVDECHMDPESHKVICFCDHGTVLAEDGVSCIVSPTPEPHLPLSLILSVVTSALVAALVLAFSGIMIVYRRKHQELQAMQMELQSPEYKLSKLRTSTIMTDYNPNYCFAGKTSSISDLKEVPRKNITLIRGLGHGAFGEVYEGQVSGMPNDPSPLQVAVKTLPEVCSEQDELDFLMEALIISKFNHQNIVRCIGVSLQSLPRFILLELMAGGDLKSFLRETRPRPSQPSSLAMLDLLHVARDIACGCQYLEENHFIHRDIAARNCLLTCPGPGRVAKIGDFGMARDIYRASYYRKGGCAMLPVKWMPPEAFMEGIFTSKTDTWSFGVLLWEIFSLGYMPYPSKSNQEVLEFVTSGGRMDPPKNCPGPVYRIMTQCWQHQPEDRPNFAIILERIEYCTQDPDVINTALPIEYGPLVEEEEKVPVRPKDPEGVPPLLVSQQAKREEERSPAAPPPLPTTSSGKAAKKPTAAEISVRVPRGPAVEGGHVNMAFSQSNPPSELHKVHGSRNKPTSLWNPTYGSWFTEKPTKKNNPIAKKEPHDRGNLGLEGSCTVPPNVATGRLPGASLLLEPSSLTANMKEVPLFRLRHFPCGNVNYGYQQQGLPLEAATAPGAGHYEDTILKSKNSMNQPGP", "assay": "Induction of EML4-ALK fusion protein degradation in mouse BaF3 cells at 0.001 to 10 uM after 3 hrs by Western blot analysis", "format": "cell-based", "conditions": "dose 0.001-10 µM"}},
  "note": "Calls of active or inactive are those of the source. No cut-off for these calls is given here.",
  "data": [
    {"smiles": "COc1cc(N2CCN(CCCCCC(=O)N[C@H](C(=O)N3C[C@H](O)C[C@H]3C(=O)N[C@@H](C)c3ccc(-c4scnc4C)cc3)C(C)(C)C)CC2)ccc1Nc1ncc(Cl)c(Nc2ccccc2P(C)(C)=O)n1", "values": [
      {"measurement": "IC50", "setting": "BaF3 [1]", "value": 50, "unit": "nM"},
      {"measurement": "Activity", "setting": "BaF3 [2]", "value": 75.4, "unit": "%"},
      {"measurement": "Activity", "setting": "BaF3 [3]", "value": 53.7, "unit": "%"}
    ]},
    {"smiles": "COc1cc(N2CCN(CCCCCCCC(=O)N[C@H](C(=O)N3C[C@@H](O)C[C@H]3C(=O)N[C@@H](C)c3ccc(-c4scnc4C)cc3)C(C)(C)C)CC2)ccc1Nc1ncc(Cl)c(Nc2ccccc2P(C)(C)=O)n1", "values": [
      {"measurement": "Activity", "setting": "BaF3 [4]", "value": "inactive"}
    ]},
    {"smiles": "COc1cc(N2CCN(CCCCCCCC(=O)N[C@H](C(=O)N3C[C@H](O)C[C@H]3C(=O)N[C@@H](C)c3ccc(-c4scnc4C)cc3)C(C)(C)C)CC2)ccc1Nc1ncc(Cl)c(Nc2ccccc2P(C)(C)=O)n1", "values": [
      {"measurement": "Activity", "setting": "BaF3 [5]", "value": "Active"},
      {"measurement": "inhibition", "setting": "[6]", "value": "Dose-Dependent Effect"},
      {"measurement": "inhibition", "setting": "BaF3 [7]", "value": "Dose-Dependent Effect"},
      {"measurement": "Activity", "setting": "BaF3 [8]", "value": 49.6, "unit": "%"},
      {"measurement": "Activity", "setting": "BaF3 [9]", "value": "Dose-Dependent Effect"},
      {"measurement": "Activity", "setting": "BaF3 [10]", "value": "inactive"},
      {"measurement": "Activity", "setting": "BaF3 [11]", "value": "Active"},
      {"measurement": "IC50", "setting": "BaF3 [1]", "value": 20, "unit": "nM"},
      {"measurement": "Activity", "setting": "BaF3 [2]", "value": 79.1, "unit": "%"},
      {"measurement": "Activity", "setting": "BaF3 [3]", "value": 52, "unit": "%"},
      {"measurement": "Activity", "setting": "[12]", "value": "Active"},
      {"measurement": "Activity", "setting": "[13]", "value": "inactive"},
      {"measurement": "Activity", "setting": "[14]", "value": "inactive"},
      {"measurement": "Activity", "setting": "[15]", "value": "inactive"},
      {"measurement": "IC50", "setting": "NCI-H1975", "value": 1130, "unit": "nM"},
      {"measurement": "IC50", "setting": "NCI-H3255", "value": 604, "unit": "nM"},
      {"measurement": "IC50", "setting": "HCC827", "value": 229, "unit": "nM"},
      {"measurement": "IC50", "setting": "A-431", "value": 526, "unit": "nM"},
      {"measurement": "Activity", "setting": "BaF3 [16]", "value": "inactive"},
      {"measurement": "Activity", "setting": "BaF3 [17]", "value": "inactive"},
      {"measurement": "Activity", "setting": "EML4-ALK (Homo sapiens)", "value": "inactive"}
    ]},
    {"smiles": "COc1cc(C2CCN(CCCCCC(=O)N[C@H](C(=O)N3C[C@H](O)C[C@H]3C(=O)N[C@@H](C)c3ccc(-c4scnc4C)cc3)C(C)(C)C)CC2)ccc1Nc1ncc(Cl)c(Nc2ccccc2N(C)S(C)(=O)=O)n1", "values": [
      {"measurement": "IC50", "setting": "BaF3 [1]", "value": 70, "unit": "nM"},
      {"measurement": "Activity", "setting": "BaF3 [2]", "value": 74.1, "unit": "%"},
      {"measurement": "Activity", "setting": "BaF3 [3]", "value": 58.4, "unit": "%"}
    ]},
    {"smiles": "COc1cc(N2CCN(CCCCCC(=O)N[C@H](C(=O)N3C[C@H](O)C[C@H]3C(=O)N[C@@H](C)c3ccc(-c4scnc4C)cc3)C(C)(C)C)CC2)ccc1Nc1ncc(Cl)c(Nc2ccccc2S(=O)(=O)C(C)C)n1", "values": [
      {"measurement": "IC50", "setting": "BaF3 [1]", "value": 240, "unit": "nM"},
      {"measurement": "Activity", "setting": "BaF3 [2]", "value": 56.9, "unit": "%"},
      {"measurement": "Activity", "setting": "BaF3 [3]", "value": 48.5, "unit": "%"}
    ]},
    {"smiles": "COc1cc(C2CCN(CCCCCC(=O)N[C@H](C(=O)N3C[C@H](O)C[C@H]3C(=O)N[C@@H](C)c3ccc(-c4scnc4C)cc3)C(C)(C)C)CC2)ccc1Nc1ncc(Cl)c(Nc2ccccc2NS(C)(=O)=O)n1", "values": [
      {"measurement": "IC50", "setting": "BaF3 [1]", "value": 370, "unit": "nM"},
      {"measurement": "Activity", "setting": "BaF3 [2]", "value": 35.2, "unit": "%"},
      {"measurement": "Activity", "setting": "BaF3 [3]", "value": 14, "unit": "%"}
    ]},
    {"smiles": "COc1cc(N2CCN(CCCC(=O)N[C@H](C(=O)N3C[C@H](O)C[C@H]3C(=O)N[C@@H](C)c3ccc(-c4scnc4C)cc3)C(C)(C)C)CC2)ccc1Nc1ncc(Cl)c(Nc2ccccc2P(C)(C)=O)n1", "values": [
      {"measurement": "IC50", "setting": "BaF3 [1]", "value": 370, "unit": "nM"},
      {"measurement": "Activity", "setting": "BaF3 [2]", "value": 22.7, "unit": "%"},
      {"measurement": "Activity", "setting": "BaF3 [3]", "value": 6.2, "unit": "%"}
    ]}
  ]
}
